For test [1], the target named is T1, Neuronal acetylcholine receptor; alpha4/beta2 (Homo sapiens, UniProt P17787+P43681). The test is described as follows: Compound was evaluated for functional potencies and efficacies at human Nicotinic acetylcholine receptor alpha4-beta2. In kind it is protein-complex assay.
The target of test [2] is Neuronal acetylcholine receptor; alpha3/beta4 (Homo sapiens, UniProt P30926+P32297). Kind of test: Compound was evaluated for functional potencies and efficacies at human Nicotinic acetylcholine receptor subtype IMR-32 (ganglionic). The class given is protein-complex assay.
Sequence of Neuronal acetylcholine receptor; alpha3/beta4 (P30926 whole entry): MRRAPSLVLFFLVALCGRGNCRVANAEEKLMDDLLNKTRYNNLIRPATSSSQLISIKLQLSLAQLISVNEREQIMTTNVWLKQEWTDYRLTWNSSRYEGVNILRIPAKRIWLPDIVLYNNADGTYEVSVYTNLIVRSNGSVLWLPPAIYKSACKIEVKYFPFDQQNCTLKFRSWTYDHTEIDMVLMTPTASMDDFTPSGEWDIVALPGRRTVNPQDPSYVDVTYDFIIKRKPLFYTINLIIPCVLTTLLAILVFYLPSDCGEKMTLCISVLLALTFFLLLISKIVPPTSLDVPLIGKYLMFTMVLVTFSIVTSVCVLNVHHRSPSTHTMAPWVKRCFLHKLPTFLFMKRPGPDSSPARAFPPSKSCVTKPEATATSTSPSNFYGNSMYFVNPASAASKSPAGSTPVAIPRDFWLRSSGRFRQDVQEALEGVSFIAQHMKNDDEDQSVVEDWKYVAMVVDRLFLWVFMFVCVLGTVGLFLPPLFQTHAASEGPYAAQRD
Sequence of Neuronal acetylcholine receptor; alpha3/beta4 (P32297 whole entry): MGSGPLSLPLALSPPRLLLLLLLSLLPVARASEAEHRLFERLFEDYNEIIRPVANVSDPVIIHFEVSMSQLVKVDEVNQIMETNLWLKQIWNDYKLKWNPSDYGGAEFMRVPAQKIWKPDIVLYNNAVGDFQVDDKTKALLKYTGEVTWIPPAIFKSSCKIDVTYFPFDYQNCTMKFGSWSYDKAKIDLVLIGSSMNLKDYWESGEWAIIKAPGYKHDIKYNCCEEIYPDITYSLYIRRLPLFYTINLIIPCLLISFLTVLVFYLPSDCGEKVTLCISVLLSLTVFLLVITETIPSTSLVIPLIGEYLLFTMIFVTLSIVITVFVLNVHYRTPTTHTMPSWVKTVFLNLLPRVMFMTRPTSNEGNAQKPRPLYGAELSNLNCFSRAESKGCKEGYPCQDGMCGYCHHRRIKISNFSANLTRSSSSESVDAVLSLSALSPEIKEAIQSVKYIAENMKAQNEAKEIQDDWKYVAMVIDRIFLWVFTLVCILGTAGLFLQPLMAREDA
In test [3] the target is T2, Neuronal acetylcholine receptor subunit alpha-7 (Rattus norvegicus, UniProt Q05941). Kind of test: (§1) Affinity for Nicotinic acetylcholine receptor alpha7.
T2 sequence (Q05941 whole entry): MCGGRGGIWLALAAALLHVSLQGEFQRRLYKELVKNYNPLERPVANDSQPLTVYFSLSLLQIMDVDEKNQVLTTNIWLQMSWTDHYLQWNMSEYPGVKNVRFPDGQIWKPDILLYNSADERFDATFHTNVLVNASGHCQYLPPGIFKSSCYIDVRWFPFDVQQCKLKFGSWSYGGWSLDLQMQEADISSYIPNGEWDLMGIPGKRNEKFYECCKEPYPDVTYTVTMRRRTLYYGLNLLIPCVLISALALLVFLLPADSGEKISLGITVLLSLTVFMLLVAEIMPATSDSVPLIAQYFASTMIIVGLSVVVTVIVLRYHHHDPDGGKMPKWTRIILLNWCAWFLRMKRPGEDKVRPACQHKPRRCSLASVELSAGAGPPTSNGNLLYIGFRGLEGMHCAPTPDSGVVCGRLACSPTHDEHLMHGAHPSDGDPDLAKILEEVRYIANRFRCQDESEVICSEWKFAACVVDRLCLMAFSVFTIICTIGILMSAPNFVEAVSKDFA
Test [4] is filed under the species Rattus norvegicus. The test is described as follows: Compound was evaluated for functional potencies and efficacies at rat nAChR subtype DA release. In kind it is organism-based.
Test [5] deals with T2, Neuronal acetylcholine receptor subunit alpha-7. The test is described as follows: Binding potency for Nicotinic acetylcholine receptor alpha-7 (rat brain).
The target of test [6] is T3, Neuronal acetylcholine receptor; alpha4/beta2 (Rattus norvegicus, UniProt P09483+P12390). Kind of test: Binding potency for Nicotinic acetylcholine receptor alpha4-beta2 (rat brain).
Test [7] concerns the target T3, Neuronal acetylcholine receptor; alpha4/beta2. Kind of test: Functional potency for Nicotinic acetylcholine receptor alpha4-beta2 (rat brain).
For test [8], the target named is T4, Neuronal acetylcholine receptor subunit alpha-7 (Homo sapiens, UniProt P36544). Kind of test: Compound was evaluated for functional potencies and efficacies at human Nicotinic acetylcholine receptor alpha7.
T4 sequence (P36544 whole entry): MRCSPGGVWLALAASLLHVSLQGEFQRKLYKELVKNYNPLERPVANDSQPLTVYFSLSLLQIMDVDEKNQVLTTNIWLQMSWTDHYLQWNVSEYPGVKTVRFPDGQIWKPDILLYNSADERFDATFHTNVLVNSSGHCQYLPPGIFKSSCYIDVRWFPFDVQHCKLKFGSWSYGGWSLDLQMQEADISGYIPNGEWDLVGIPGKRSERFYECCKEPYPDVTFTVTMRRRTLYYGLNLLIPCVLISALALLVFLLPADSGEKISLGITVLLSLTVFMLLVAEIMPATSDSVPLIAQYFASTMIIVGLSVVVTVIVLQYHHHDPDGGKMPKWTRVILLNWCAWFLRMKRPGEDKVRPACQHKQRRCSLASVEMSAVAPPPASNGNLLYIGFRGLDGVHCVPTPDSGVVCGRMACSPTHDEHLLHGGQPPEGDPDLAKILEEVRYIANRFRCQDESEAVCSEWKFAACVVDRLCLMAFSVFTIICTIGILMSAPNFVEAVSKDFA
The target in test [9] is T2, Neuronal acetylcholine receptor subunit alpha-7. Kind of test: Functional potency for Nicotinic acetylcholine receptor alpha-7 (rat brain).
Test [10] concerns the target T3, Neuronal acetylcholine receptor; alpha4/beta2. Kind of test: Compound was evaluated for functional potencies and efficacies at rat Nicotinic acetylcholine receptor alpha4-beta2. The class given is protein-complex assay.
Test [11] concerns the target T4, Neuronal acetylcholine receptor subunit alpha-7. The test is described as follows: Ability to block activation of acetylcholine-stimulated currents in human alpha-7 homomers expressed in oocytes. In kind it is functional, cell-based, Oocyte.
Test [12] addresses Muscle-type nicotinic acetylcholine receptor. Kind of test: Compound was evaluated for functional potencies and efficacies at human muscle type Nicotinic acetylcholine receptor in TE671 cells. The note with it: te-671. The class given is cell-based.
Test [13] addresses Neuronal acetylcholine receptor. Kind of test: Compound was evaluated for functional potencies and efficacies at rat Nicotinic acetylcholine receptor subtype PC12 (ganglionic). The class given is cell-based. To be noted: pc-12.
Test [14] deals with T4, Neuronal acetylcholine receptor subunit alpha-7. Kind of test: Compound was evaluated for functional potencies and efficacies at human Nicotinic acetylcholine receptor alpha7; low efficacy.
The target in test [15] is T1, Neuronal acetylcholine receptor; alpha4/beta2. The test is described as follows: Compound was evaluated for functional potencies and efficacies at human Nicotinic acetylcholine receptor alpha4-beta2; low efficacy. The class given is protein-complex assay.
For test [16], the target named is T3, Neuronal acetylcholine receptor; alpha4/beta2. The test is described as follows: Compound was evaluated for functional potencies and efficacies at rat Recombinant Nicotinic acetylcholine receptor alpha4-beta2; low efficacy. The class given is protein-complex assay.
The target of test [17] is Neuronal acetylcholine receptor. The test is described as follows: Compound was evaluated for functional potency and efficacy at rat Nicotinic acetylcholine receptor in PC12 cells (ganglionic). In kind it is cell-based. To be noted: pc-12.
Test [18] addresses T5, Neuronal acetylcholine receptor (Rattus norvegicus) (UniProt P04757+P09483+P12389+P12390+P12392+P43144+Q9JLB5+P12391+P43143+P20420+Q05941). The test is described as follows: Compound was evaluated for functional potency and efficacy at rat Nicotinic acetylcholine receptor subtype DA release at 1 uM.
Test [19] concerns the target T5, Neuronal acetylcholine receptor (Rattus norvegicus). The test is described as follows: compound was evaluated for functional potency and efficacy at rat Nicotinic acetylcholine receptor subtype DA release at 10 uM.
For a further test, the system named is TE-671. The test is described as follows: Stimulation of ion flux in TE671 cells. The note with it: Homo sapiens. In kind it is functional, cell-based.
The target of test [20] is T4, Neuronal acetylcholine receptor subunit alpha-7. Described as §1.
Test [21] is filed under the species Rattus norvegicus. The test is described as follows: compound was evaluated for functional potencies and efficacies at rat nAChR subtype DA release. The class given is organism-based.
For test [22], the target named is T6, Acetylcholine receptor (Torpedo californica, UniProt P02710+P02712+P02714+P02718). The test is described as follows: Functional potency for nAChR subtype Alpha1-beta1 delta gamma (torpedo). The class given is protein-complex assay.
T6 sequence (P02710 whole entry): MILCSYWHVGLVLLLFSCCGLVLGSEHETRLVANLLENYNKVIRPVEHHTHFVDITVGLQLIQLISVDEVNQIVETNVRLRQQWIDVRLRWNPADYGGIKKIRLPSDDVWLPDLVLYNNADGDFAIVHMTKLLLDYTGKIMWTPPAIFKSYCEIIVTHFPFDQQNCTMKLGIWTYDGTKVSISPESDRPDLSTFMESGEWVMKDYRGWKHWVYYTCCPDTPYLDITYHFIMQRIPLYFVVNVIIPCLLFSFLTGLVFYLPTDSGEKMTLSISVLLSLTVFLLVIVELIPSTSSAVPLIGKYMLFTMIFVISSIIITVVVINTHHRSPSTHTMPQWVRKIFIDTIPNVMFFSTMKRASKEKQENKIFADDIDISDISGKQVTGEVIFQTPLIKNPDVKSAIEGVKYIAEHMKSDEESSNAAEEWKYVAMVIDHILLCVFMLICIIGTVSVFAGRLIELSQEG
T6 sequence (P02712 whole entry): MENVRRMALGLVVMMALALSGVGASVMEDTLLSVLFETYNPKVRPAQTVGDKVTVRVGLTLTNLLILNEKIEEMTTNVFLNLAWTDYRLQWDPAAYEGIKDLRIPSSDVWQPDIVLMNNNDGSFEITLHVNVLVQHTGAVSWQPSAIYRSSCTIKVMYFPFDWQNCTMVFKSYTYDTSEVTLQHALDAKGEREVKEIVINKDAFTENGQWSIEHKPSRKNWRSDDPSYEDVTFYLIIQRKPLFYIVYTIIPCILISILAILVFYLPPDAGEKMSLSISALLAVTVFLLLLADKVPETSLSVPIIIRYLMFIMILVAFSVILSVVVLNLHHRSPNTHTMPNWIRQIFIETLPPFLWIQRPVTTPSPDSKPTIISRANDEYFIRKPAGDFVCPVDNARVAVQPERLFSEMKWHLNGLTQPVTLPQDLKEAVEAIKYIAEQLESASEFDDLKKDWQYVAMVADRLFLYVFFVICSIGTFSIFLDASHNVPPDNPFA
T6 sequence (P02718 whole entry): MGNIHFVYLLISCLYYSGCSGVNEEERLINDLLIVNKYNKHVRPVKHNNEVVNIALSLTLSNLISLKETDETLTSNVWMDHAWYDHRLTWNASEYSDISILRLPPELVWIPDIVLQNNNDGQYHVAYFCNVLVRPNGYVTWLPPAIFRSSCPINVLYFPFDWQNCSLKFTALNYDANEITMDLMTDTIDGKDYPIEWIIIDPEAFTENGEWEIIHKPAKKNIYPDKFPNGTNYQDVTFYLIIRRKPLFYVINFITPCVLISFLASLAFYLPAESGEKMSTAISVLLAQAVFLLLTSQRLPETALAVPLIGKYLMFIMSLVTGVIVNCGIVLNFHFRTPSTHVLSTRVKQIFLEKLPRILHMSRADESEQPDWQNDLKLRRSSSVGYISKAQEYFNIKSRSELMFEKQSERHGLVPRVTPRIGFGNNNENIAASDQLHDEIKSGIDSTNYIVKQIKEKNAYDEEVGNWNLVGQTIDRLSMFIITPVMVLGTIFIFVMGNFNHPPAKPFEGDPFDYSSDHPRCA
T6 sequence (P02714 whole entry): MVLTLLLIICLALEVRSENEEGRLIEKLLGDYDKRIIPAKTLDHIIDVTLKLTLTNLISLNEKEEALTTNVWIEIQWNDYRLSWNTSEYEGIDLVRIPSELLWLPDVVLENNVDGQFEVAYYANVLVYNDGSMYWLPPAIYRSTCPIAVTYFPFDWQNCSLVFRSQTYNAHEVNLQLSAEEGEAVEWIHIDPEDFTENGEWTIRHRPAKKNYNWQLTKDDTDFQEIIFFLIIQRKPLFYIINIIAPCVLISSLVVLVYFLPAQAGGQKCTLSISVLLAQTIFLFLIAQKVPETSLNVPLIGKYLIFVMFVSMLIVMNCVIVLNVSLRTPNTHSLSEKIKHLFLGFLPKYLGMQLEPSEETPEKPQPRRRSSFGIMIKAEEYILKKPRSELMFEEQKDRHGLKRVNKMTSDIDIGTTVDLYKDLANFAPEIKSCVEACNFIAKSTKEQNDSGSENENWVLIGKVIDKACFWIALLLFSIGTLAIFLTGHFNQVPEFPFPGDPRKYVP
The target in test [23] is T6, Acetylcholine receptor. Kind of test: Binding potency for nAChR subtype Alpha-1-beta-1-delta gamma(torpedo). The class given is protein-complex assay.
The target of test [24] is T6, Acetylcholine receptor.
The target of test [25] is T6, Acetylcholine receptor. This is another data set of the same source.

Each structure is given as a SMILES string.

In the case of `CNCC/C=C/c1cccnc1` [RIVANICLINE], the EC50 – broadly, the concentration needed to bring the measured effect to its halfway point – in test [1] is 4.3 µM; in test [2] (read-out: EC50), 46 µM; in the test filed under Rattus norvegicus [4], 0.94 µM. Also, the Ki (as a rule, the equilibrium dissociation constant of an inhibitor or competing ligand from its target) in [3] amounted to 36 µM.

Consider `CO[C@@H]1CC=C2CCN3CCC4=C(CC(=O)OC4)[C@@]23C1`, for which the Ki turned out to be 0.148 µM in test [5] and 0.04 nM in test [6]. Also, the EC50 in test [7] worked out at 0.7 µM; in [8], 19.6 µM; in test [9], 8.9 µM; in test [10], 0.37 µM; in the test filed under Rattus norvegicus [4], 0.03 µM.

As to `CNC1(C)C2CCC(C2)C1(C)C` (centres undefined) [MECAMYLAMINE], the IC50 (as a rule, the concentration that inhibits the measured activity by half) in test [11] turned out to be 1.8 µM. Further, the midpoint of the response in [12], the EC50, lay at 30 µM.

With `O=c1cccc2n1C[C@@H]1CNC[C@H]2C1` [CYTISINICLINE], the EC50 was 10 µM in [13]; 38 µM in [1]; 26 µM in test [2] (read-out: EC50); 71 µM in test [8]; 0.06 µM in the test filed under Rattus norvegicus [4].

Take `COc1ccc(/C=C2\CCCN=C2c2cccnc2)c(OC)c1` [GTS-21]: the EC50 result is “Low efficacy” in [14]; “Low efficacy” in test [15]; “Low efficacy” in test [2]; “Low efficacy” in [16]; 10 µM in the test filed under Rattus norvegicus [4].

Consider `CC(=O)C1=CC[N+](C)(C)CC1`, for which the EC50 in test [17] was 100 µM.

In the case of `Clc1ccc(C2CC3CCC2N3)cn1` (racemic) [EPIBATIDINE], the EC50 was 3.5 µM in test [8] and 0.037 µM in the test filed under Rattus norvegicus [4].

Take `CN1CCC[C@H]1COc1cccnc1`: the values for the Potency in test [18] and in test [19] were 55% and 90%, respectively.

The compound `C[N+](C)(C)CCOC(=O)CCC(=O)OCC[N+](C)(C)C` [SUXAMETHONIUM] displayed an EC50 with TE-671 of 30 µM.

With `Cc1ncccc1OC[C@@H]1CCCN1` [POZANICLINE], the EC50 result was “Low efficacy” in [14], “Low efficacy” in test [15], “Low efficacy” in [2] and 1.1 µM in the test filed under Rattus norvegicus [4]. For the same compound, the Ki in test [20] is greater than 10 µM.

Consider `c1cncc(OC[C@@H]2CCN2)c1`, for which the EC50 in [1] was found to be 0.7 µM; in test [2] (read-out: EC50) it was 0.7 µM; in test [8], 8.9 µM; in the test filed under Rattus norvegicus [21] it was 0.003 µM.

In the case of `Cc1cc([C@@H]2CCCN2C)on1` [ABT-418], the values for the Ki (in test [5]; in test [6]; at Acetylcholine receptor [23]) were greater than 10 µM, 7.89 nM and greater than 10 µM, respectively. The EC50 at Acetylcholine receptor [22] stood at 411 µM; in test [7] it was 10 µM; in test [2] (read-out: EC50), 64 µM; in [8], 264 µM; in test [9], 264 µM; in [10], 6 µM. In addition, in the test filed under Rattus norvegicus [4], the EC50 worked out at 0.38 µM.

`CN1CCC[C@H]1c1cccnc1` [NICOTINE] returned a Ki on Acetylcholine receptor [24] greater than 10 µM. Moreover, the values for the EC50 on Acetylcholine receptor [25] and in the test filed under Rattus norvegicus [4] were 60 µM and 0.04 µM, respectively.

Consider `C[N+]1(C)CCN(c2ccccc2)CC1` [DIMETHYLPHENYLPIPERAZINIUM], for which the EC50 in test [1] came out at 2.5 µM; in test [8], 95 µM; in the test listed under Rattus norvegicus [4], 4.3 µM.

For the origin of these results see ChEMBL document CHEMBL1130264 (J Med Chem, 1997).
